Source: patent US12501902B2, “Compositions and methods relating to insecticides” (priority 2019, dated 2025)

Tested on: Aedes aegypti mosquitoes
Format: in vivo
Conditions: for Synergism of the insecticide by Cha Plu (SR or words): Cha Plu at 4 μg/female; for LD50: Table 1, topical 0.2 μL, mortality at 24 hr, Cha Plu 4 μg/female where combined; for Synergism of NP by Cha Plu constituent: Table 2, 2 ug/female
Description: Aedes aegypti mosquitoes of the insecticide susceptible Orlando strain and the pyrethroid-resistant Puerto Rico strain were reared using standard protocols and provided by the United States Department of Agriculture—Center of Medical, Agricultural, and Veterinary Entomology (Gainesville, FL). Mosquitoes were aspirated from colony cages raised from pupae and anesthetized on ice. […] Ten mosquitoes were used per concentration and at least three different biological cohorts were used in the analysis. Knockdown (defined as inability to fly or maintain posture) was recorded at 1 hr or other time points post application (depending on the experiment), whereas mortality (defined as no movement—ataxia) was recorded at 24 hr. […] SAS 9.4 was used to calculate the LD50 values using a PROC PROBIT model with Abbott's correction to account for any control mortality.

Compound	Synergism of the insecticide by Cha Plu (SR or words)	LD50	Synergism of NP (PBO applied at 2 μg/female)	Synergism of NP by Cha Plu constituent
N#Cc1nn(-c2c(Cl)cc(C(F)(F)F)cc2Cl)c(N)c1[S+]([O-])C(F)(F)F (stereo not drawn) [Fipronil]	1.02	0.1 ng/mg	–	–
CCCCOCCOCCOCc1cc2c(cc1CCC)OCO2 [PBO]	–	–	3.8 fold	–
CNC(=N[N+](=O)[O-])NCc1cnc(Cl)s1 [Clothianidin, 1-(2-Chloro-1,3-thiazol-5-ylmethyl)-3-methyl-2-nitroguanidine]	strong synergist	4.5 ng/mg	–	–
O=c1cc(-c2ccc(O)cc2)oc2c([C@@H]3O[C@H](CO)[C@@H](O)[C@H](O)[C@H]3O)c(O)cc(O)c12 [Vitexin]	–	–	–	inactive
CCOCn1c(-c2ccc(Cl)cc2)c(C#N)c(Br)c1C(F)(F)F [Chlorfenapyr]	antagonism	9.9 ng/mg	–	–
C[C@@H]1O[C@@H](OC[C@H]2O[C@@H](Oc3c(-c4ccc(O)c(O)c4)oc4cc(O)cc(O)c4c3=O)[C@H](O)[C@@H](O)[C@@H]2O)[C@H](O)[C@H](O)[C@H]1O [rutin]	–	–	–	more than 3 fold
